Series [1] can be described thus: In-vivo pharmacokinetics of compounds in SD rats. To be noted: intravenous; for clearance / half-life / AUC(0-t) at 8 h / Vd: rat, plasma; for AUC(0-t) at 8 h: read-out: AUC0-8 h; for Vd: read-out: Vz. Here is the method: SD rats were taken as test animals to study in-vivo pharmacokinetics behaviors after injection administration of the compounds of the present disclosure to male and female SD rats at dosages of 1 mg/kg and 3 mg/kg.
• Species: male and female SD rats (2 female rats and 2 male rats/group) • Grade: SPF grade • Weight: about 200 g • Source: Hunan SJA Laboratory Animal Co., Ltd.
Male and female SD rats were injected with the test sample solution, and Compound 2 of the example and the Dxd were given in a dosage of 1 mg/kg and a dosage volume of 4 mL/kg. Compound 3 of the example and the Dxd were given in a dosage of 3 mg/kg and a dosage volume of 5 mL/kg.
Preparation of test sample solution: the test sample was dissolved with a solvent (10% DMSO-60% PEG400-30% (20% HP-β-CD-water)), and DMSO, PEG 400 and 20% HP-β-CD-water were added sequentially during preparation.
0 before administration, and 5 minutes, 15 minutes, 0.5 hours, 1 hour, 2 hours, 3 hours, 5 hours and 8 hours after administration.
0.2 mL of blood was collected and placed into an EDTA-2K anticoagulant tube. The anticoagulant tube was turned upside down gently to fully mix the anticoagulant (EDTA-2K) with the blood, and then immediately placed into wet ice, and plasma was centrifuged for separation within 1 hour after blood collection at 4° C. and 6800 g for 6 minutes. After centrifugation, the plasma was separated and stored in an ultra-low-temperature refrigerator as soon as possible until sample analysis.

Series [2] can be described thus: Metabolism stability test in liver microsomes. Conditions: human liver microsomes; for CLint scaled / half-life / microsomal CLint: pH 7.4; for microsomal CLint: read-out: CLint(mic). The series is classed as in vitro ADME. Here is the method: The experiment was intended to detect metabolic stabilities of the compounds in the present disclosure in human liver microsomes.
• Human Liver Microsomes (Corning, Cat No. 452117)
Experimental method: each incubation system contained a phosphate buffer solution (PBS, pH 7.4), a liver microsomal protein, a to-be-tested sample (acetonitrile solution) and NADPH, incubated in water bath at 37° C., and the same volume of cold acetonitrile (comprising an internal standard) was added 0, 5, 15, 30, 45 and 60 minutes after reaction respectively to terminate the reaction. The sample solution was centrifuged, 80 μL of the supernatant was taken and 240 μL of ultrapure water was added, and the remaining amount of the prototype substrate was detected by LC-MS/MS method. The negative control was incubated with a human liver microsome NCF group (without NADPH).
(In general: Liver microsomes are vesicles of endoplasmic reticulum, rich in cytochrome P450 enzymes.)

Series [3] relates to KPL-4 (human breast cancer cells). Briefly: Cell-proliferation inhibitory activity (CellTiter-Glo, 3 days). The class given is cell-based. To be noted: KPL-4 cells. The source says:
(§1) The experiment was intended to detect in-vitro inhibitory activities of the compounds of the present disclosure on NCI-N87 (human gastric cancer cells), KPL-4 (human breast cancer cells) or MDA-MB-468 (human breast cancer cells).
(§2) Human gastric cancer cells NCI-N87 (ATCC, article number: CRL-5822), human breast cancer cells MDA-MB-468 (Cell Bank of the Committee on Type Culture Collection, Chinese Academy of Sciences, article number: TCHu136) and human breast cancer cells KPL-4 (Nanjing Cobioer Biosciences Co., Ltd., article number: CBP60379) were washed with PBS, then the cells were digested with 0.25% Trypsin-EDTA trypsin for about 3-10 minutes, and the digestion was terminated with a complete cell culture medium. The cells were centrifuged at 1000 rpm for 5 minutes, the supernatant was discarded, and the cells were resuspended with a complete cell culture medium, counted by a cell counter, and adjusted to a required density. Each well was added with 90.0 μL of the cell suspension according to 3000 cells per well, and the cell plate was placed into a 5% CO2 cell incubator at 37° C. to incubate the cells overnight.
(§3) In the experiment, a DMSO control group, a positive control group and a test sample group were provided respectively, and the compound Dxd was used as a positive control compound. The cell plate was taken out of the incubator to observe a cell adhesion state, and after cell adhesion, each well was added with 10.00 μL of the sample (starting from a final concentration 10 μM, diluted 5 times, 9 concentrations), shaken gently, and then placed into an incubator to incubate the cells.
(§4) After incubation for 3 days, each well was added with a CellTiter-Glo™ (Promega, article number: G7572/G7571) working solution according to 100.0 μL/well and oscillated by a constant-temperature oscillator to lyse the cells, and 10 minutes later, the plate was read on a microplate reader.
(§5) A calculation formula of a cell-proliferation inhibition rate was: cell-proliferation inhibition rate=(1−RLUtest sample well/RLUDMSO control well)×100%.
(§6) Data analysis: a graph was made by GraphPad Prism 8.0 software with a Log value of a sample concentration as an abscissa and Inhibition % as an ordinate, and data were subjected to Nonlinear regression (curve fit) analysis to obtain an IC50 value of each test sample.
Background: In ATP-based viability assays light output follows the ATP content of the culture.

The subject of series [4] is NCI-N87 (human gastric cancer cells). The series is described as above. The series is classed as cell-based.
Excerpt: as §1, §2, §3, §4, §5, §6

Series [5] relates to MDA-MB-468 (human breast cancer cells). The series is described as above. The series is classed as cell-based. Conditions: MDA-MB-468 cells.
Excerpt: as §1, §2, §3, §4, §5, §6

Where two headings read alike, the source gives them in different places.

With `CC[C@@]1(O)C(=O)OCc2c1cc1n(c2=O)Cc2c-1nc1cc(F)c(C)c3c1c2[C@@H](NC(=O)CO)CC3` [Dxd], the clearance was 69.2 mL/min/kg in series [1] (1 mg/kg) and 65.7 mL/min/kg in series [1] (3 mg/kg). Besides, the half-life in series [1] (1 mg/kg) is 78 min; in series [1] (3 mg/kg), 118 min; in series [2] (NADPH, 37° C.), 102 min. Further, the AUC(0-t) at 8 h in series [1] (1 mg/kg) was 240 ng·h/mL; in series [1] (3 mg/kg) it was 760 ng·h/mL. Moreover, the Vd in series [1] (1 mg/kg) is 7.96 L/kg; in series [1] (3 mg/kg), 10.9 L/kg. In series [2], this compound yielded a CLint scaled of 12.3 mL/min/kg. Moreover, the microsomal CLint in series [2] turned out to be 13.6 µL/min/mg. Also, the IC50 in series [3] (Homo sapiens, KPL4, 72 h) worked out at 32.3 nM; in series [4] (Homo sapiens, 72 h) it was 22.6 nM; in series [5] (Homo sapiens, 72 h), 2.71 nM.

As to `C#CCN(CCO)C(=O)N[C@H]1CCc2c(C)c(F)cc3nc4c(c1c23)Cn1c-4cc2c(c1=O)COC(=O)[C@]2(O)CC` [Example 2], in series [1] (1 mg/kg), the “AUC0-8 h” value came out at 77.9 ng·h/mL, the “CL” value is 12700 mL/min/kg, the “T1/2” value came to 1.59 h and the “Vz” value amounted to 29000 mL/kg. For the same compound, in series [2], the “CLint(liver)” value turned out to be 20.0 mL/min/kg and the “CLint(mic)” value stood at 22.2 µL/min/mg. In addition, in series [2] (NADPH, 37° C.), the “T1/2” value worked out at 62.4 min. This compound also yielded an IC50 in series [3] of 29.6 nM. For the same compound, the IC50 in series [4] was determined as 11 nM. Moreover, in series [5], the IC50 amounted to 2.41 nM.

On to `C=CCN(CCO)C(=O)N[C@H]1CCc2c(C)c(F)cc3nc4c(c1c23)Cn1c-4cc2c(c1=O)COC(=O)[C@]2(O)CC` [Example 3, 1-allyl-3-((1S,9S)-9-ethyl-5-fluoro-9-hydroxy-4-methyl-10,13-dioxo-2,3,9,10,13,15-hexahydro-1H,12H-benzo[de]pyrano[3′,4′:6,7]indolizino[1,2-b]quinolin-1-yl)-1-(2-hydroxyethyl)urea], for which, in series [1] (3 mg/kg), the clearance was 124 mL/min/kg, the half-life was 104 min, the AUC(0-t) at 8 h amounted to 405 ng·h/mL and the Vd came to 18.7 L/kg. Moreover, in series [2], the CLint scaled came out at 23.7 mL/min/kg and the microsomal CLint was 26.4 µL/min/mg. The compound also displayed a half-life in series [2] (NADPH, 37° C.) of 52.6 min. The IC50 in series [3] (Homo sapiens, KPL4, 72 h) was 8.82 nM. The same compound returned an IC50 in series [4] (Homo sapiens, 72 h) of 6.39 nM. In series [5] (Homo sapiens, 72 h), this compound showed an IC50 of 0.99 nM.

Usually clearance stands for the volume of plasma or blood freed of the substance per unit of time. A low value points to a low capacity for elimination. One may read the half-life as the time needed for the level to fall by half in the phase considered. Low readings indicate rapid decline, high ones slow decline. Broadly, the CLint scaled is a measure of how fast metabolising enzymes remove a compound, apart from limits set by blood flow. Usually IC50 stands for the concentration that inhibits the measured activity by half. Higher therefore signals weaker potency in that assay. As a reminder, the Vz is the apparent volume that relates the amount in the body to the concentration in plasma or blood. Lower therefore signals confinement near the circulation.

For the origin of these results see patent publication US20260284214A1, “EXATECAN DERIVATIVE AND ANTIBODY-DRUG CONJUGATE THEREOF” (priority 2023, published 2026).
